From the supplement of paper PMC10307832

How the values were obtained:
Test in all cases: relative viability (nuclei count vs DMSO), 5 days (fraction); higher = more cells survive
[1] = compound: O=C1NC(=O)[C@@H](c2cn3c4c(cccc24)CCC3)[C@@H]1c1c[nH]c2ccccc12 [Tivantinib] + CC(=O)c1c(C)c2cnc(Nc3ccc(N4CCNCC4)cn3)nc2n(C2CCCC2)c1=O [Palbociclib] (partner 0.5 µM)
How it was run: (§1)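 Lung cancer cell lines in 1536-well plates were dosed by pin tool the day after seeding, either with one drug alone or with a fixed anchor-drug dose plus five library-drug doses (not always all listed) in √10 steps. After 5 days, cells were fixed and their nuclei stained in one step (final 0.05% Triton X-100, 1% formaldehyde, 1 ug/ml Hoechst), then counted on 4× images. Relative viability is the nuclei count in treated wells divided by that in vehicle wells. Values are medians of duplicate plates.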

[2] = compound: O=C1NC(=O)[C@@H](c2cn3c4c(cccc24)CCC3)[C@@H]1c1c[nH]c2ccccc12 [Tivantinib] + C[C@]1(O)C[C@@H](c2nc(-c3ccc4ccc(-c5ccccc5)nc4c3)c3c(N)nccn32)C1 [Linsitinib] (partner 1 µM)
How it was run: as §1

[3] = compound: CC1(COc2ccc3c(c2)ncn3-c2ccc3cccc(N4CCC(N)CC4)c3n2)COC1 [Crenolanib] + Cc1cc(Nc2cc(N3CCN(C)CC3)nc(Sc3ccc(NC(=O)C4CC4)cc3)n2)n[nH]1 [Tozasertib] (partner 0.1 µM)
How it was run: as §1

[4] = compound: O=C1NC(=O)[C@@H](c2cn3c4c(cccc24)CCC3)[C@@H]1c1c[nH]c2ccccc12 [Tivantinib] + CC1(C)CCC(c2ccc(Cl)cc2)=C(CN2CCN(c3ccc(C(=O)NS(=O)(=O)c4ccc(N[C@H](CCN5CCOCC5)CSc5ccccc5)c(S(=O)(=O)C(F)(F)F)c4)cc3)CC2)C1 [Navitoclax] (partner 0.5 µM)
How it was run: as §1

Cell Line | relative viability ([1]; first compound 0.01 µM) | relative viability ([1]; first compound 0.03162 µM) | relative viability ([1]; first compound 0.1 µM) | relative viability ([1]; first compound 0.3162 µM) | relative viability ([2]; first compound 0.01 µM) | relative viability ([2]; first compound 0.03162 µM) | relative viability ([2]; first compound 0.1 µM) | relative viability ([2]; first compound 0.3162 µM) | relative viability ([3]; first compound 0.01 µM) | relative viability ([3]; first compound 0.03162 µM) | relative viability ([3]; first compound 0.1 µM) | relative viability ([3]; first compound 0.3162 µM) | relative viability ([3]; first compound 1 µM) | relative viability ([4]; first compound 0.01 µM) | relative viability ([4]; first compound 0.03162 µM) | relative viability ([4]; first compound 0.1 µM) | relative viability ([4]; first compound 0.3162 µM)
NCI-H1993 | 0.701 | 0.621 | 0.583 | 0.567 | 0.742 | 0.863 | 0.734 | 0.721 | 0.639 | 0.588 | 0.572 | 0.579 | 0.543 | 1.04 | 0.929 | 1.06 | 0.681
CAL-12T | 0.409 | 0.345 | 0.347 | 0.185 | 0.785 | 0.812 | 0.709 | 0.397 | 0.314 | 0.349 | 0.294 | 0.343 | 0.36 | 1.2 | 1.3 | 1.16 | 1.03
NCI-H1623 | – | – | – | – | – | – | – | – | 0.492 | 0.439 | 0.437 | 0.41 | 0.421 | – | – | – | –
HCC-78 | 0.49 | 0.445 | 0.448 | 0.426 | 0.553 | 0.422 | 0.477 | 0.286 | 0.366 | 0.395 | – | 0.406 | 0.368 | 0.853 | 0.683 | 0.8 | 0.3
EKVX | 0.408 | 0.446 | 0.381 | 0.174 | 1 | 0.898 | 0.915 | 0.25 | 0.465 | 0.346 | 0.428 | 0.364 | 0.359 | 0.996 | 0.953 | 0.929 | 0.433
NCI-H1666 | 0.691 | 0.596 | 0.66 | 0.681 | 0.699 | 0.807 | 0.741 | 0.735 | 0.695 | 0.613 | 0.633 | 0.591 | 0.555 | 0.94 | 0.79 | 0.961 | 0.568
NCI-H1944 | 0.366 | 0.327 | 0.324 | 0.297 | 1.07 | 1.06 | 1.01 | 0.583 | 0.251 | 0.248 | 0.261 | 0.242 | 0.234 | 0.975 | 0.997 | 0.992 | 0.778
NCI-H1734 | 0.384 | 0.319 | 0.336 | 0.366 | 0.937 | 0.846 | 0.839 | 0.85 | 0.275 | 0.251 | 0.249 | 0.306 | 0.275 | 0.849 | 0.86 | 0.802 | 0.896
Calu-6 | – | – | – | – | 1.02 | 1.04 | – | 0.963 | – | – | – | – | – | 0.866 | 0.996 | 0.807 | 0.716
EBC-1 | – | – | – | – | 0.902 | 0.626 | 0.842 | 0.86 | – | – | – | – | – | 0.505 | 0.46 | 0.414 | 0.293
A-427 | 0.547 | 0.551 | 0.484 | 0.507 | 1.12 | 1.12 | 1.12 | 1.05 | 0.209 | 0.237 | 0.224 | 0.181 | 0.225 | 0.893 | 0.882 | 0.924 | 0.951
NCI-H2405 | 0.565 | 0.584 | 0.486 | 0.536 | 1.16 | 1.02 | 0.941 | 0.739 | 0.859 | 0.737 | – | 0.502 | 0.691 | 1.17 | 0.766 | 0.973 | 0.305
NCI-H1437 | 0.311 | 0.28 | 0.335 | 0.289 | 1.06 | 1.04 | 0.958 | 1.04 | 0.458 | 0.443 | 0.415 | 0.437 | 0.39 | 1.1 | 1.11 | 0.968 | 1.1
NCI-H358 | 0.172 | 0.16 | 0.151 | 0.0952 | 0.725 | 0.717 | 0.617 | 0.328 | 0.0999 | 0.097 | 0.0998 | 0.0966 | 0.12 | – | – | – | –
RERF-LC-KJ | 0.644 | 1.1 | 1.01 | 0.647 | 0.895 | 0.945 | 0.826 | 0.808 | 0.532 | 0.469 | 0.527 | 0.487 | 0.461 | 0.901 | 1.05 | 0.818 | 0.829
NCI-H23 | 0.614 | 0.457 | 0.462 | 0.493 | 0.539 | 0.579 | 0.626 | 0.561 | 0.358 | 0.394 | 0.385 | 0.313 | 0.27 | 0.987 | 1.01 | 0.759 | 0.753
IA-LM | – | – | – | – | 0.593 | – | 0.586 | 0.538 | – | – | – | – | – | 0.973 | 0.792 | 0.743 | 0.795
HCC-15 | 0.724 | 0.761 | 0.638 | 0.852 | 0.89 | 0.796 | 0.857 | 0.911 | 0.397 | 0.313 | 0.444 | 0.378 | 0.427 | 0.728 | 0.628 | 0.684 | 0.698
PC-14 | 0.594 | 0.578 | 0.499 | 0.536 | 0.941 | 0.923 | 0.931 | 0.892 | 0.697 | 0.573 | 0.554 | 0.533 | 0.413 | 1.05 | 0.926 | 0.981 | 0.947
NCI-H1792 | 0.685 | 0.62 | 0.627 | 0.618 | 0.596 | 0.431 | 0.512 | 0.323 | – | – | – | – | – | 0.619 | 0.66 | 0.651 | 0.816
HCC-827 | 0.458 | 0.531 | 0.487 | – | 1.03 | 0.991 | 0.96 | 0.953 | 0.422 | 0.417 | 0.421 | 0.389 | 0.431 | 1.04 | 1.05 | 0.926 | 1.02
